Paper PMC7824550 (Biomolecules, 2020)

Target: T1, human cathepsin L (Homo sapiens, UniProt P07711)
T1 construct: made in house
Test: Inhibition of cathepsin L, fluorogenic substrate Z-Leu-Arg-AMC
Type: biochemical
Conditions: not given

T1 sequence (P07711 114-333): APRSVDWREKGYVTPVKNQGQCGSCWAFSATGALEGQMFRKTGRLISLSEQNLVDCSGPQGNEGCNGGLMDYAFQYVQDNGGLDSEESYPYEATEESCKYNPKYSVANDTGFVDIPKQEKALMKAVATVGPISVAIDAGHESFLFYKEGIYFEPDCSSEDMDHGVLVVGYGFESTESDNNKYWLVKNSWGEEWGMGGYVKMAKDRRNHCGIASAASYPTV

| Compound | IC50 [µM] |
| --- | --- |
| O=C(O)C=Cc1ccc(O)cc1O [2,4-Dihydroxy-cinnamic acid, 2,4-dihydroxycinnamic acid] | 930 ± 150 |
| O=C(/C=C/c1ccc(O)c(O)c1)OCCc1ccccc1 [Caffeic acid phenethyl ester, caffeic acid phenethyl ester] | 190 ± 30 |
| O=C(/C=C/c1ccc(O)c(O)c1)O[C@@H]1C[C@](O)(C(=O)O)C[C@@H](O)[C@H]1O [Chlorogenic acid, chlorogenic acid] | 480 ± 20 |
| O=C(O)/C=C/c1ccccc1O [o-Coumaric acid] | > 1000 |

The next lines start with the values.

| IC50 [µM] | Compound |
| --- | --- |
| > 1000 | O=C(O)C=Cc1ccc(O)c(O)c1 [Caffeic acid, 3,4-dihydroxycinnamic acid] |
| > 1000 | O=C(O)/C=C/c1ccccc1 [Cinnamic acid] |
| > 1000 | O=C(O)CCc1ccc(O)c(O)c1 [Hydrocaffeic acid, 3-(3,4-Dihydroxyphenyl) propionic acid] |
| > 1000 | O=C(O)C=Cc1ccc(O)cc1 [p-Coumaric acid] |

Same assay, conditions: pH 5.5

| Mechanism of inhibition of cathepsin L | Compound |
| --- | --- |
| Mixed | O=C(/C=C/c1ccc(O)c(O)c1)OCCc1ccccc1 [Caffeic acid phenethyl ester, caffeic acid phenethyl ester] |
| Mixed | O=C(O)C=Cc1ccc(O)c(O)c1 [Caffeic acid, 3,4-dihydroxycinnamic acid] |
| Mixed | O=C(/C=C/c1ccc(O)c(O)c1)O[C@@H]1C[C@](O)(C(=O)O)C[C@@H](O)[C@H]1O [Chlorogenic acid, chlorogenic acid] |

Same assay, conditions: pH 5.5; catalytic (uncompetitive) inhibition constant; read-out: KCa, cathepsin L

| Ki [µM] | Compound |
| --- | --- |
| 170 ± 30 | O=C(/C=C/c1ccc(O)c(O)c1)OCCc1ccccc1 [Caffeic acid phenethyl ester, caffeic acid phenethyl ester] |
| 1270 ± 120 | O=C(O)C=Cc1ccc(O)c(O)c1 [Caffeic acid, 3,4-dihydroxycinnamic acid] |
| 670 ± 60 | O=C(/C=C/c1ccc(O)c(O)c1)O[C@@H]1C[C@](O)(C(=O)O)C[C@@H](O)[C@H]1O [Chlorogenic acid, chlorogenic acid] |

Same assay, conditions: pH 5.5; specific (competitive) inhibition constant; read-out: KSp, cathepsin L

| Ki [µM] | Compound |
| --- | --- |
| 120 ± 70 | O=C(/C=C/c1ccc(O)c(O)c1)OCCc1ccccc1 [Caffeic acid phenethyl ester, caffeic acid phenethyl ester] |
| 740 ± 70 | O=C(O)C=Cc1ccc(O)c(O)c1 [Caffeic acid, 3,4-dihydroxycinnamic acid] |
| 330 ± 20 | O=C(/C=C/c1ccc(O)c(O)c1)O[C@@H]1C[C@](O)(C(=O)O)C[C@@H](O)[C@H]1O [Chlorogenic acid, chlorogenic acid] |

Test system: not listed separately
Test: Solubility under the experimental conditions used
Type: physicochemical
Conditions: assay buffer of the cathepsin L inhibition screening, aqueous buffer; under the experimental conditions used (pH 5.5 assay buffer); read-out: Limited solubility
Experimental: The kinetic characterization of CA, CAPE, and CGA was initially performed under the same conditions as the inhibition screening (pH 5.5). All compounds acted as fast, linear inhibitors of cathepsin L, as observed for DPPI [17]. Kinetic mechanisms and inhibition parameters were determined by a combination of titration curves (plots of the residual enzyme activity (vX/v0) against the inhibitor concentration) and replots of the experimental data as specific velocity plots. The remaining titration curves were collected in Supplementary Figure S1. […] However, a more precise characterization of its effect was made difficult by its limited solubility of only up to about 200 μM under the experimental conditions used.

| solubility [µM] | Compound |
| --- | --- |
| ~200 | O=C(/C=C/c1ccc(O)c(O)c1)OCCc1ccccc1 [Caffeic acid phenethyl ester, caffeic acid phenethyl ester] |

Target: T2, cathepsin K (Homo sapiens, UniProt P43235)
T2 sequence (P43235 115-329): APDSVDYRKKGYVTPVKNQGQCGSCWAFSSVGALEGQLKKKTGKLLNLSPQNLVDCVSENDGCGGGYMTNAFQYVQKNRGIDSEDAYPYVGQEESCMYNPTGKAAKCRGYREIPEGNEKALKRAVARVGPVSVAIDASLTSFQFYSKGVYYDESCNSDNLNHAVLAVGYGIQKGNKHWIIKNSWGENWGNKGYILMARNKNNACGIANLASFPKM
Test: Inhibition of cathepsin K (results not shown)
Type: biochemical
Conditions: confirmed in the authors' laboratory

| Inhibition of cathepsin K | Compound |
| --- | --- |
| no inhibition | O=C(/C=C/c1ccc(O)c(O)c1)OCCc1ccccc1 [Caffeic acid phenethyl ester, caffeic acid phenethyl ester] |
| no inhibition | O=C(O)C=Cc1ccc(O)c(O)c1 [Caffeic acid, 3,4-dihydroxycinnamic acid] |

Test system: dipeptidyl-peptidase I (DPPI)
Test: not given
Parameters: method as in PMID 31574257
Conditions: previously characterized; cited from earlier work

| Compound | Mechanism of inhibition of DPPI |
| --- | --- |
| O=C(O)C=Cc1ccc(O)c(O)c1 [Caffeic acid, 3,4-dihydroxycinnamic acid] | linear, mixed balanced |
| O=C(/C=C/c1ccc(O)c(O)c1)O[C@@H]1C[C@](O)(C(=O)O)C[C@@H](O)[C@H]1O [Chlorogenic acid, chlorogenic acid] | linear catalytic |

Target: T3, human cathepsin B (Homo sapiens, UniProt P07858)
Test: Inhibition of peptidyl-dipeptidase activity of cathepsin B, substrate Abz-Gly-Ile-Val-Arg-Ala-Lys(Dnp)-OH
Type: biochemical
Parameters: made in house
Conditions: pH 5.5, [S] = Km, read-out: IC50, peptidyl-peptidase activity of cathepsin B
Experimental: In addition, the peptidyl-dipeptidase activity of cathepsin B was measured with the internally quenched fluorigenic substrate Abz-Gly-Ile-Val-Arg-Ala-Lys(Dnp)-OH. Cleavage of this substrate was assessed at λex = 370 nm and λem = 430 nm. […] Nevertheless, appropriate correction of the inner filter effect was performed for all compounds according to the following reference.
For linear (complete) inhibitors, v∞ = 0.

| IC50 [µM] | Compound |
| --- | --- |
| 100 ± 20 | O=C(/C=C/c1ccc(O)c(O)c1)OCCc1ccccc1 [Caffeic acid phenethyl ester, caffeic acid phenethyl ester] |
| > 1000 | O=C(O)C=Cc1ccc(O)c(O)c1 [Caffeic acid, 3,4-dihydroxycinnamic acid] |
| 360 ± 60 | O=C(/C=C/c1ccc(O)c(O)c1)O[C@@H]1C[C@](O)(C(=O)O)C[C@@H](O)[C@H]1O [Chlorogenic acid, chlorogenic acid] |

Target: T3, human cathepsin B
Test: Inhibition of cathepsin B, fluorogenic substrate Z-Phe-Arg-AMC
Conditions: not given

| Compound | IC50 [µM] |
| --- | --- |
| O=C(O)C=Cc1ccc(O)cc1O [2,4-Dihydroxy-cinnamic acid, 2,4-dihydroxycinnamic acid] | 910 ± 30 |
| O=C(/C=C/c1ccc(O)c(O)c1)OCCc1ccccc1 [Caffeic acid phenethyl ester, caffeic acid phenethyl ester] | 470 ± 30 |
| O=C(/C=C/c1ccc(O)c(O)c1)O[C@@H]1C[C@](O)(C(=O)O)C[C@@H](O)[C@H]1O [Chlorogenic acid, chlorogenic acid] | 340 ± 20 |
| O=C(O)/C=C/c1ccccc1O [o-Coumaric acid] | > 1000 |

More lines, now with the values ahead:

| IC50 [µM] | Compound |
| --- | --- |
| 110 ± 10 | O=C(O)C=Cc1ccc(O)c(O)c1 [Caffeic acid, 3,4-dihydroxycinnamic acid] |
| > 1000 | O=C(O)/C=C/c1ccccc1 [Cinnamic acid] |
| > 1000 | O=C(O)CCc1ccc(O)c(O)c1 [Hydrocaffeic acid, 3-(3,4-Dihydroxyphenyl) propionic acid] |

Same assay, conditions: KCa, cathepsin B, pH 5.5; catalytic (uncompetitive) inhibition constant

| Ki [µM] | Compound |
| --- | --- |
| 140 ± 10 | O=C(/C=C/c1ccc(O)c(O)c1)OCCc1ccccc1 [Caffeic acid phenethyl ester, caffeic acid phenethyl ester] |
| 82 ± 16 | O=C(O)C=Cc1ccc(O)c(O)c1 [Caffeic acid, 3,4-dihydroxycinnamic acid] |
| 1200 ± 1100 | O=C(/C=C/c1ccc(O)c(O)c1)O[C@@H]1C[C@](O)(C(=O)O)C[C@@H](O)[C@H]1O [Chlorogenic acid, chlorogenic acid] |

Same assay, conditions: KCa, cathepsin B, pH 7.4; catalytic (uncompetitive) inhibition constant

| Ki [µM] | Compound |
| --- | --- |
| 70 ± 19 | O=C(/C=C/c1ccc(O)c(O)c1)OCCc1ccccc1 [Caffeic acid phenethyl ester, caffeic acid phenethyl ester] |
| 46 ± 4 | O=C(O)C=Cc1ccc(O)c(O)c1 [Caffeic acid, 3,4-dihydroxycinnamic acid] |
| 92 ± 15 | O=C(/C=C/c1ccc(O)c(O)c1)O[C@@H]1C[C@](O)(C(=O)O)C[C@@H](O)[C@H]1O [Chlorogenic acid, chlorogenic acid] |

Same assay, conditions: KSp, cathepsin B, pH 5.5; specific (competitive) inhibition constant

| Ki [µM] | Compound |
| --- | --- |
| 270 ± 140 | O=C(O)C=Cc1ccc(O)c(O)c1 [Caffeic acid, 3,4-dihydroxycinnamic acid] |
| 340 ± 80 | O=C(/C=C/c1ccc(O)c(O)c1)O[C@@H]1C[C@](O)(C(=O)O)C[C@@H](O)[C@H]1O [Chlorogenic acid, chlorogenic acid] |

Same assay, conditions: KSp, cathepsin B, pH 7.4; specific (competitive) inhibition constant

| Ki [µM] | Compound |
| --- | --- |
| 107 ± 38 | O=C(/C=C/c1ccc(O)c(O)c1)OCCc1ccccc1 [Caffeic acid phenethyl ester, caffeic acid phenethyl ester] |
| 92 ± 15 | O=C(/C=C/c1ccc(O)c(O)c1)O[C@@H]1C[C@](O)(C(=O)O)C[C@@H](O)[C@H]1O [Chlorogenic acid, chlorogenic acid] |

Same assay, conditions: pH 5.5

| Mechanism of inhibition of cathepsin B | Compound |
| --- | --- |
| Catalytic | O=C(/C=C/c1ccc(O)c(O)c1)OCCc1ccccc1 [Caffeic acid phenethyl ester, caffeic acid phenethyl ester] |
| Mixed | O=C(/C=C/c1ccc(O)c(O)c1)O[C@@H]1C[C@](O)(C(=O)O)C[C@@H](O)[C@H]1O [Chlorogenic acid, chlorogenic acid] |

Same assay, conditions: pH 7.4

| Mechanism of inhibition of cathepsin B | Compound |
| --- | --- |
| Mixed | O=C(/C=C/c1ccc(O)c(O)c1)OCCc1ccccc1 [Caffeic acid phenethyl ester, caffeic acid phenethyl ester] |
| Catalytic | O=C(O)C=Cc1ccc(O)c(O)c1 [Caffeic acid, 3,4-dihydroxycinnamic acid] |
| Mixed balanced | O=C(/C=C/c1ccc(O)c(O)c1)O[C@@H]1C[C@](O)(C(=O)O)C[C@@H](O)[C@H]1O [Chlorogenic acid, chlorogenic acid] |
